According to patent US11834453B2, “Substituted pyrimido[5,4-d]pyrimidines as HER2 inhibitors” (Array BioPharma Inc., priority 2020, dated 2023):
Where two headings read alike, the source gives them in different places.

Experiments:
[1] = target: ErbB2 insYVMA (HER2-YVMA, SEQ ID NO: 2) (Homo sapiens, UniProt P04626, INS775YVMA/P1170A); assay: biochemical; conditions: ErbB2 insYVMA enzyme assay
ErbB2 WT = ErbB2 WT (Homo sapiens (Human), UniProt P04626); assay: ErbB enzyme assay (CisBio HTRF KinEASE-TK), Assay 2; assay type: biochemical
In short: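 Readout is HTRF KinEASE-TK, using Sa-XL665 and cryptate antibody for 1 h at 22 °C, as percent of control between DMSO-only (100) and pre-quenched (0) reactions. The kinase reaction runs 30 min at 22 °C with 1 mM ATP and 250 nM biotinylated TK substrate, in HEPES pH 7.4 with MgCl2 and 2% DMSO.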

EGFR = EGFR (Homo sapiens (Human), UniProt P00533); assay: ErbB enzyme assay (CisBio HTRF KinEASE-TK), Assay 3; assay type: biochemical
Sequence of EGFR (P00533 25-1210): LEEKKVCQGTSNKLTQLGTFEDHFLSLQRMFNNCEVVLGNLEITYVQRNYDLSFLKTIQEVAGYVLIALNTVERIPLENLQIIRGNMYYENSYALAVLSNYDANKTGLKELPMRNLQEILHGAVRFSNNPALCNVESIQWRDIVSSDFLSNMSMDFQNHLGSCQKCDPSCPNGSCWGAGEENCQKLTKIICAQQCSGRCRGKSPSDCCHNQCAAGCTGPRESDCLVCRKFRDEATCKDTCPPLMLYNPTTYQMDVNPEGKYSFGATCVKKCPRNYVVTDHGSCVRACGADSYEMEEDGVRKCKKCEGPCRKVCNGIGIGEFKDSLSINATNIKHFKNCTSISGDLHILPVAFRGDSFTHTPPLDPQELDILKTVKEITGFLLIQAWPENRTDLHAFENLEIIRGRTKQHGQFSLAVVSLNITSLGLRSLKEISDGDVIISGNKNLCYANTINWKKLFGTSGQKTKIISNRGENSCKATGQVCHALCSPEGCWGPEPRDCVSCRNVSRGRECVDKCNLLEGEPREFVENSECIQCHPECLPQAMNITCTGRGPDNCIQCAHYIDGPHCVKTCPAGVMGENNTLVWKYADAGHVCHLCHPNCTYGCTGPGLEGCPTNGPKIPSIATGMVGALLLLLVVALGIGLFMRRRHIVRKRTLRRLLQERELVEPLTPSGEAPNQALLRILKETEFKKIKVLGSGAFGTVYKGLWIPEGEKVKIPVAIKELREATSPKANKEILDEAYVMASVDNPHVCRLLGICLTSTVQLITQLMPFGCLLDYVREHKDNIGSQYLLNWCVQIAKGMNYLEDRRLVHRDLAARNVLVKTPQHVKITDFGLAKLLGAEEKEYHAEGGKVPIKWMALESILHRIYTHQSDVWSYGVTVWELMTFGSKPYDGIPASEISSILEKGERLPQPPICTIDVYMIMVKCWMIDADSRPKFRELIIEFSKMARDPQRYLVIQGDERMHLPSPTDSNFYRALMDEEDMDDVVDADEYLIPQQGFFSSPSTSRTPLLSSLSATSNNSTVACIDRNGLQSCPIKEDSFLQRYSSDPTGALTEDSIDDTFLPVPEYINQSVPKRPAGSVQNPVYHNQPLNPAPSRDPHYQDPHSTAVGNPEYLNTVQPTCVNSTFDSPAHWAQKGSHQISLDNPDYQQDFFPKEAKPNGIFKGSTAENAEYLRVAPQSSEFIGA
In short: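 Using a time-resolved FRET read-out, tyrosine phosphorylation of 250 nM biotin substrate at 1 mM ATP (pH 7.4, 10 mM MgCl2, 2% DMSO, 22 °C, 30 min) was quantified against DMSO and pre-quenched controls; IC50 taken at 50% of control.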

[2] = target: ErbB2 with Exon 20 YVMA insertion (HER2-YVMA) (Homo sapiens (Human), UniProt P04626, INS775YVMA); assay: Cellular phosphorylation assay, constitutive ErbB2 phosphorylation (Y1196) in engineered NIH 3T3 cells, Assay 4; assay type: cell-based
Sequence of ErbB2 with Exon 20 YVMA insertion (HER2-YVMA) (P04626 other isoform, or with tags, fused parts or gaps ins YVMA behind 775): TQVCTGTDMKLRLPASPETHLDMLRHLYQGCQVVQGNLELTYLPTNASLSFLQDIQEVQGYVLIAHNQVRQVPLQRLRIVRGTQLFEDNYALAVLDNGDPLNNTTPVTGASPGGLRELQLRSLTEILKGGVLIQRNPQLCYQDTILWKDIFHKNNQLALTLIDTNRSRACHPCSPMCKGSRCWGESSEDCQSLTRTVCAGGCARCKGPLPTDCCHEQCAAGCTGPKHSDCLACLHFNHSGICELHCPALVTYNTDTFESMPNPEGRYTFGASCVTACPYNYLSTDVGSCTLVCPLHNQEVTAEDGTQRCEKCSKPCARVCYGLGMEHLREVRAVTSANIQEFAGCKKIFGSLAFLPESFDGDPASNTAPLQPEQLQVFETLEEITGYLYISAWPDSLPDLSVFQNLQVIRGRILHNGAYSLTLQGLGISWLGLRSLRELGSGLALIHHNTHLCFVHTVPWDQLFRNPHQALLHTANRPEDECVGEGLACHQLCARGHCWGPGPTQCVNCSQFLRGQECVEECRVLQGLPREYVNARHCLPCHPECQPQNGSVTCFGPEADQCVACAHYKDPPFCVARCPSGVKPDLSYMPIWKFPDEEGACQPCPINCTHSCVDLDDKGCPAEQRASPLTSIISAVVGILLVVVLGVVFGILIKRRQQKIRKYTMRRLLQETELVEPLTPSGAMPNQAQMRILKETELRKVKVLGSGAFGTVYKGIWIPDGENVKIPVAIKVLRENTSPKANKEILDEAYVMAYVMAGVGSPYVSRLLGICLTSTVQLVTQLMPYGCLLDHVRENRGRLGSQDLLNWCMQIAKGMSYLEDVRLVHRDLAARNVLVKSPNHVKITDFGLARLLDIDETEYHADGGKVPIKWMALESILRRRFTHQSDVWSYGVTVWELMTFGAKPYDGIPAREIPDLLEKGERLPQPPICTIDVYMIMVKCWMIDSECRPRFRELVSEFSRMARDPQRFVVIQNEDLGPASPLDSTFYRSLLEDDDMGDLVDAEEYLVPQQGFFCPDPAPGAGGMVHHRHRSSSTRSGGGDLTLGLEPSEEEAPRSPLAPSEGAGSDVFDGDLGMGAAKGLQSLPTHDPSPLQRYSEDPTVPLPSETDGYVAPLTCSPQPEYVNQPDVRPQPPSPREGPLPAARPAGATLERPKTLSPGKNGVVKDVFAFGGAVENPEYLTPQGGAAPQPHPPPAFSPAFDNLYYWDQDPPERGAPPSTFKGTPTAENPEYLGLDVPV
In short: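 In-cell Western in NIH 3T3 cells carrying ErbB2 exon 20 YVMA insertion, with no ligand stimulation. One hour compound exposure at 37 °C before fixation and anti-pY1196 plus GAPDH staining with dual-wavelength fluorescence. IC50 derived after GAPDH normalization.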

EGFR wild type (EGFR WT) = EGFR wild type (EGFR WT) (Homo sapiens (Human), UniProt P00533); assay: Cellular phosphorylation assay, EGF-stimulated EGFR phosphorylation in engineered NIH 3T3 cells, Phospho-EGFR DuoSet IC ELISA, Assay 5; assay type: cell-based
Sequence of EGFR wild type (EGFR WT) (P00533 25-1210): as the sequence (P00533 25-1210) above
In short: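 Phospho-EGFR ELISA on lysates of engineered NIH 3T3 EGFR WT cells, IC50 derived from concentration curves. Cells plated at 20,000/well overnight, given compound dilutions 1 h at 37 °C, then rEGF 100 ng/ml for a further 10 min before lysis.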

Sequence of ErbB2 insYVMA (HER2-YVMA, SEQ ID NO: 2) (P04626 with tags, fused parts or gaps INS775YVMA/P1170A limits assumed): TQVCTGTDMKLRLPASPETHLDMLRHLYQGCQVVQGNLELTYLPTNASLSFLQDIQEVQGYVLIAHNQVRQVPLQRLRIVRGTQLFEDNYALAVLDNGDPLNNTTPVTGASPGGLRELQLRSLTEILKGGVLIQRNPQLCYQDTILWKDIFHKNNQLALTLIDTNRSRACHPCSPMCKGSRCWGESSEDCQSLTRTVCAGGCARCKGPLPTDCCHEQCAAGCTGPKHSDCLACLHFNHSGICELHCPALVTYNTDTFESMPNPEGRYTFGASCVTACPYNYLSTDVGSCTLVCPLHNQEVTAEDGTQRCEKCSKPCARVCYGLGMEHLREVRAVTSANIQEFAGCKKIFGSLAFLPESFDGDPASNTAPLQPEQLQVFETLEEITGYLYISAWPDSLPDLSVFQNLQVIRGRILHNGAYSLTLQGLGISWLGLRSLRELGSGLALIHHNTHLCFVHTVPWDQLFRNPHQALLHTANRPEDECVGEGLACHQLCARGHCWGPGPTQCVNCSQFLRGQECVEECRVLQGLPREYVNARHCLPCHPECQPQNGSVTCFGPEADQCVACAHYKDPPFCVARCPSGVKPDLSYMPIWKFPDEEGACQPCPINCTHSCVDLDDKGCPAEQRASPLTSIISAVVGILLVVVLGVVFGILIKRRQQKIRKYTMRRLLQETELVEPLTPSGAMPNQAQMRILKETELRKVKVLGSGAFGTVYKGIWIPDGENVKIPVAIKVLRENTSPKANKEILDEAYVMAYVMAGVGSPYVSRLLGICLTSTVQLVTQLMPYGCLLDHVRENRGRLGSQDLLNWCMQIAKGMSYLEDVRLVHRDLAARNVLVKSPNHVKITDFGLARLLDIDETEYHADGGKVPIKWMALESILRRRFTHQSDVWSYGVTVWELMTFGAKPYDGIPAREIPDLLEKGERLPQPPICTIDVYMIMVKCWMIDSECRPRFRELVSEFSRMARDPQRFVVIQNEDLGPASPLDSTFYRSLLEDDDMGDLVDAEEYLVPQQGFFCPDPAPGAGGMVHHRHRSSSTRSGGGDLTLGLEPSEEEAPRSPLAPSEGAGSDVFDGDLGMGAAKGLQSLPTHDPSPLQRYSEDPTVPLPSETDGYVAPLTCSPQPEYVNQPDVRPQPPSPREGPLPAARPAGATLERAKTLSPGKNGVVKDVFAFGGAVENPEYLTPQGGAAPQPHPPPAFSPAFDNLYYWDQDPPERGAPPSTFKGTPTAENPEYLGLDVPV

Compound | IC50 ([1]; read-out: Assay 1 IC50) [nM] | IC50 (ErbB2 WT) [nM] | IC50 (EGFR) [µM] | IC50 [2] [nM] | IC50 (EGFR wild type (EGFR WT)) [µM] | IC50 ([1]; Assay 1 IC50 (nM)) [nM]
Cc1cc(Nc2ncnc3cnc(N4CCC5(CCO5)CC4)nc23)ccc1Oc1ccc2c(c1)ncn2C [Example 345] | 31.3 | 57.8 | ≥ 10 | 18.5 | ≥ 5 | 
Cc1cc(Nc2ncnc3cnc(N4CCC[C@@H]5COC[C@@H]54)nc23)ccc1Oc1ccc2c(c1)ncn2C [Example 432] | 28.8 | 71.1 | ≥ 10 | 80.2 | ≥ 5 | 
Cc1cc(Nc2ncnc3cnc(N4C[C@@H]5[C@H](C4)[C@H]4CC[C@@H]5O4)nc23)ccc1Oc1ccc2c(c1)ncn2C [Example 380] | 46.4 | 64 | ≥ 10 | 43.2 | ≥ 5 | 
Cc1cc(Nc2ncnc3cnc(N4CC[C@@H](C(F)F)C4)nc23)ccc1Oc1ccn2ncnc2c1 [Example 400] | 8.7 | 40.7 | 8.42 | 218 | ≥ 5 | 
CN(c1ncc2ncnc(Nc3ccc(Oc4ccn5ncnc5c4)c(Cl)c3)c2n1)[C@H]1CCOC1 [Example 133, (S)—N8-(4-([1,2,4]triazolo[1,5-a]pyridin-7-yloxy)-3-chlorophenyl)-N2-methyl-N2-(tetrahydrofuran-3-yl)pyrimido[5,4-d]pyrimidine-2,8-diamine] | 10.8 | 26.2 | 5.72 | 55.4 | ≥ 5 | 
Cc1cc(Nc2ncnc3cnc(N(C)C4COC4)nc23)ccc1Oc1ccn2ncnc2c1 [Example 403] | 16.7 | 12 | 6.63 | 339 | ≥ 5 | 
Cc1cc(Nc2ncnc3cnc(N(C)CC(C)(C)O)nc23)c(F)cc1Oc1ccc2c(c1)ncn2C [Example 491] | 27.8 | 36.9 | ≥ 10 | 78.6 | ≥ 5 | 
Clc1cc(Nc2ncnc3cnc(N4CCOCC4)nc23)ccc1Oc1ccn2ncnc2c1 [Example 409] | 18.3 | 32.1 | 3.53 | 43 | ≥ 5 | 
Cc1cc(Nc2ncnc3cnc(N4CC5(CCOC5)C4)nc23)ccc1Oc1ccn2ncnc2c1 [Example 373] | 81.6 | 307 | ≥ 10 | 2480 | ≥ 5 | 
Clc1cc(Nc2ncnc3cnc(N4CCC5COCC54)nc23)ccc1Oc1ccn2ncnc2c1 (centres unmarked) [Example 377] | 7.6 | 14.7 | 1.41 | 58.2 | ≥ 5 | 
Cc1cc(Nc2ncnc3cnc(N(C)[C@H]4CCOC4)nc23)ccc1Oc1ccn2ncnc2c1 [Example 381] | 15.4 | 9.4 | 5.04 | 265 | ≥ 5 | 
Cc1cc(Nc2ncnc3cnc(N(C)[C@@H]4CN(C)C[C@@H]4F)nc23)ccc1Oc1ccc2c(c1)ncn2C [Example 305] | 14.1 | 20.3 | 1.86 | 10.8 | ≥ 5 | 
C[C@H]1CN(c2ncc3ncnc(Nc4ccc(Oc5ccc6c(c5)ncn6C)c(Cl)c4)c3n2)CCO1 [Example 450] | 26.1 | 55 | 4.01 | 13.4 | ≥ 5 | 
Cc1cc(Nc2ncnc3cnc(N4C[C@H]5COC[C@H]5C4)nc23)ccc1Oc1ccc2c(c1)ncn2C [Example 466] | 24.1 | 61.3 | ≥ 10 | 16.2 | ≥ 5 | 
Cc1cc(Nc2ncnc3cnc(N(C)[C@H]4C[C@H](O)C4)nc23)ccc1Oc1ccn2ncnc2c1 [Example 366] | 8.3 | 6.7 | 0.303 | 76.6 | ≥ 5 | 
CC1(C)CN(c2ncc3ncnc(Nc4ccc(Oc5ccn6ncnc6c5)c(Cl)c4)c3n2)CCO1 [Example 330] | 34.3 | 72.6 | 8.51 | 197 | ≥ 5 | 
CN(CC(C)(C)O)c1ncc2ncnc(Nc3ccc(Oc4ccc5c(c4)ncn5C)c(Cl)c3)c2n1 [Example 456] | 25.9 | 69.8 | 4.52 | 47.6 | ≥ 5 | 

Compound | IC50 ([1]; read-out: Assay 1 IC50) [nM] | IC50 (ErbB2 WT) [nM] | IC50 (EGFR) [µM] | IC50 [2] [nM] | IC50 (EGFR wild type (EGFR WT)) [µM] | IC50 ([1]; Assay 1 IC50 (nM)) [nM]
Cn1cnc2cc(Oc3ccc(Nc4ncnc5cnc(N6CC[C@@H]7COC[C@H]76)nc45)cc3Cl)ccc21 [Example 489] | 17.7 | 9.7 | 3.37 | 16.4 | ≥ 5 | 
CCOc1ncc2ncnc(Nc3ccc(Oc4ccc5scnc5c4)c(C)c3)c2n1 [Example 46, N-(4-(benzo[d]thiazol-5-yloxy)-3-methylphenyl)-6-ethoxpyrimido[5,4-d]pyrimidin-4-amine 2,2,2-trifluoroacetate] | 95.2 | 760 | 4.25 | 566 | ≥ 5 | 
Cc1cc(Nc2ncnc3cnc(N4CCC[C@@]5(CCO5)C4)nc23)ccc1Oc1ccc2c(c1)ncn2C [Example 386] | 82.1 | 59.4 | 6.99 | 16.7 | ≥ 5 | 
N#C[C@H]1CCN(c2ncc3ncnc(Nc4ccc(Oc5ccn6ncnc6c5)c(Cl)c4)c3n2)C1 [Example 367] | 16.5 | 64.7 | ≥ 10 | 264 | ≥ 5 | 
Cn1cnc2cc(Oc3ccc(Nc4ncnc5cnc(N6CCN[C@H](C(F)(F)F)C6)nc45)cc3Cl)ccc21 [Example 445] | 65 | 64.5 | 4.5 | 44.2 | ≥ 5 | 
Cc1cc(Nc2ncnc3cnc(N4CCOCC4)nc23)ccc1Oc1ccn2ncnc2c1 [Example 412] | 25.9 | 70.5 | ≥ 10 | 69.7 | ≥ 5 | 
O[C@@H]1C[C@@H]2C[C@H]1CN2c1ncc2ncnc(Nc3ccc(Oc4ccn5ncnc5c4)c(Cl)c3)c2n1 [Example 333] | 11.9 | 23.2 | 2.23 | 82.1 | ≥ 5 | 
Clc1cc(Nc2ncnc3cnc(N4CC[C@@H]5COC[C@H]54)nc23)ccc1Oc1ccn2ncnc2c1 [Example 376] | 13.3 | 11.7 | 1.2 | 30.8 | ≥ 5 | 
Cc1cc(Nc2ncnc3cnc(NC4CC4)nc23)ccc1Oc1ccc2c(c1)ncn2C [Example 270] | 10.9 | 22.2 | ≥ 10 | 3.1 | ≥ 5 | 
Cc1cc(Nc2ncnc3cnc(N4CC(F)(F)C4)nc23)ccc1Oc1ccc2c(c1)ncn2C [Example 38, 6-(3,3-difluoroazetidin-1-yl)-N-(3-methyl-4-((1-methyl-1H-benzo[d]imidazol-5-yl)oxy)phenyl)pyrimido[5,4-d]pyrimidin-4-amine] | 183 | 403 | ≥ 10 | 65.1 | ≥ 5 | 
Cc1c(Oc2ccc3c(c2)ncn3C)ccc(Nc2ncnc3cnc(N4CC5CC5(O)C4)nc23)c1F (centres unmarked) [Example 347] | 79.6 | 110 | ≥ 10 | 244 | ≥ 5 | 
Cc1cc(Nc2ncnc3cnc(N4CCOC5(CC5)C4)nc23)ccc1Oc1ccc2c(c1)ncn2C [Example 58, N-(3-methyl-4-((1-methyl-1H-benzo[d]imidazol-5-yl)oxy)phenyl)-6-(4-oxa-7-azaspiro[2.5]octan-7-yl)pyrimido[5,4-d]pyrimidin-4-amine] | 62.5 | 123 | ≥ 10 | 10.6 | ≥ 5 | 
FC(F)[C@H]1CCN1c1ncc2ncnc(Nc3ccc(Oc4ccn5ncnc5c4)c(Cl)c3)c2n1 [Example 410] | 14.7 | 42.3 | 6.3 | 208 | ≥ 5 | 
Cc1cc(Nc2ncnc3cnc(OCC4(F)CN(C)C4)nc23)ccc1Oc1ccc2c(c1)ncn2C [Example 292] | 105 | 558 | ≥ 10 | 132 | ≥ 5 | 
Cc1cc(Nc2ncnc3cnc(N4CC5(CC5)CS4(=O)=O)nc23)ccc1Oc1ccc2c(c1)ncn2C [Example 264] | 35.1 | 42.4 | ≥ 10 | 6.6 | ≥ 5 | 
Cn1cnc2cc(Oc3ccc(Nc4ncnc5cnc(N6C7CCC6COC7)nc45)cc3Cl)ccc21 [Example 441] |  | 67.2 | 9.57 | 89.1 | ≥ 5 | 106
Cc1c(Oc2ccn3ncnc3c2)ccc(Nc2ncnc3cnc(N4CC[C@H]4C(C)(C)O)nc23)c1F [Example 309] | 184 | 223 | ≥ 10 | 5000 | ≥ 5 | 
